Laboratory results published in BindingDB's records for doi:10.1021/acs.jmedchem.6b01566 (Glaxosmithkline, 2017).

Biological target: Histone acetyltransferase KAT2B (Homo sapiens, UniProt Q92831)
Assay: Binding affinity to human partial length PCAF bromodomain expressed in mammalian expression system by BROMOscan method

Histone acetyltransferase KAT2B, sequence (Q92831 whole entry): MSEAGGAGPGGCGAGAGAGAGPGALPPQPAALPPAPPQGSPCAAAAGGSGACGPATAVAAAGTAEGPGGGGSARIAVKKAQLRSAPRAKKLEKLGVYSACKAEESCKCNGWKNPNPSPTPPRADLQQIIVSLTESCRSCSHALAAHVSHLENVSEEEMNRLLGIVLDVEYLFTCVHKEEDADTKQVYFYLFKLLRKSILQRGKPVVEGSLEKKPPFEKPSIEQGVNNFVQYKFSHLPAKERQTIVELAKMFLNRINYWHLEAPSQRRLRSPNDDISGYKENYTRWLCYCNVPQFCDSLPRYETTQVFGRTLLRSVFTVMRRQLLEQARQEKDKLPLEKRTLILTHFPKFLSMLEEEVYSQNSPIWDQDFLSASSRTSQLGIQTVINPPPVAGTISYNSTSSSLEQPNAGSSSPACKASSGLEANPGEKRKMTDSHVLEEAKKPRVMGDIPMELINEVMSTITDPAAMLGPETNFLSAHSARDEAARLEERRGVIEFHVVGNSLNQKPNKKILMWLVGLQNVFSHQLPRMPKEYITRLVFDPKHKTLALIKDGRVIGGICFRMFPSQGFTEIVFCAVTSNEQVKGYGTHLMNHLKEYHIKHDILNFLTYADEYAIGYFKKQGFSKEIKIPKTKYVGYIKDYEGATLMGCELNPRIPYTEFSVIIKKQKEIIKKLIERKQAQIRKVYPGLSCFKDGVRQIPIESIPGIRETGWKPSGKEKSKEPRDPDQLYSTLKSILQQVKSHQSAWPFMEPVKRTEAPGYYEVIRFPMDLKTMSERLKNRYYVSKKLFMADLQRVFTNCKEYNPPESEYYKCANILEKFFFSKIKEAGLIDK

- Ki: 1.26 nM
Structure (SMILES): CN1C[C@H](Nc2cnn(C)c(=O)c2Br)C[C@H](c2ccccc2)C1
